Assay [1] deals with SH-SY5Y. The assay is described as follows: Cytoprotective activity against p-tau-induced toxicity in human SH-SY5Y cells assessed as reduction in cell viability at 8 uM incubated for 12 hrs by CCK-8 assay relative to control. Format: functional, cell-based. For orientation: Formazan colour is commonly taken as a measure of viable cells.
For assay [2], the system named is SH-SY5Y. The assay is described as follows: Antiinflammatory activity against p-tau-induced human SH-SY5Y cells assessed as reduction in IL1beta mRNA expression at 5 uM by qRT-PCR analysis. The format is functional, cell-based. (In qPCR the cycle at which signal appears reflects the starting amount.)
Assay [3] concerns SH-SY5Y. The experiment in a line: Protective activity against p-tau induced ER-stress associated apoptosis in human SH-SY5Y cells assessed as reduction in GADD34 mRNA expression by qRT-PCR analysis. The format is functional, cell-based.
The subject of assay [4] is SH-SY5Y. The experiment in a line: Protective activity against p-tau induced ER-stress associated apoptosis in human SH-SY5Y cells assessed as reduction in ATF4 mRNA expression by qRT-PCR analysis. The format is functional, cell-based.
The test system of assay [5] is SH-SY5Y. The experiment in a line: Protective activity against p-tau induced ER-stress associated apoptosis in human SH-SY5Y cells assessed as reduction in TRB3 mRNA expression by qRT-PCR analysis. The format is functional, cell-based.
The subject of assay [6] is SH-SY5Y. The assay is described as follows: Cytoprotective activity against p-tau-induced toxicity in human SH-SY5Y cells assessed as reduction in cell viability at 0.3 uM incubated for 12 hrs by CCK-8 assay. The format is functional, cell-based.
Assay [7] has as its system SH-SY5Y. The experiment in a line: Protective activity against p-tau induced ER-stress associated apoptosis in human SH-SY5Y cells assessed as reduction in CHOP mRNA expression by qRT-PCR analysis. Format: functional, cell-based.
Assay [8] deals with SH-SY5Y. The assay is described as follows: Cytoprotective activity against p-tau-induced toxicity in human SH-SY5Y cells assessed as cell death at 8 uM incubated for 12 hrs by CCK-8 assay. Format: functional, cell-based.
Assay [9] concerns SH-SY5Y. The experiment in a line: Antiinflammatory activity against p-tau-induced human SH-SY5Y cells assessed as reduction in IRF3 mRNA expression at 5 uM by qRT-PCR analysis. The format is functional, cell-based.
Assay [10] relates to SH-SY5Y. The experiment in a line: Antiinflammatory activity against p-tau-induced human SH-SY5Y cells assessed as reduction in TNFalpha mRNA expression at 5 uM by qRT-PCR analysis. The format is functional, cell-based.
For assay [11], the system named is SH-SY5Y. The experiment in a line: Cytoprotective activity against p-tau-induced toxicity in human SH-SY5Y cells incubated for 24 hrs by TEM analysis. The format is functional, cell-based.
Assay [12] concerns SH-SY5Y. The experiment in a line: Cytoprotective activity against p-tau-induced toxicity in human SH-SY5Y cells assessed as cell viability incubated for 12 hrs by CCK-8 assay. The format is functional, cell-based.
Assay [13] has as its system SH-SY5Y. The assay is described as follows: Protective activity against thapsigargin induced ER-stress in human SH-SY5Y cells assessed as reduction ATF4 mRNA expression at 5 uM incubated for 24 hrs by qRT-PCR analysis. Format: functional, cell-based.
For assay [14], the system named is SH-SY5Y. The experiment in a line: Protective activity against p-tau induced ER-stress in human SH-SY5Y cells assessed as reduction Bip mRNA expression at 5 uM by qRT-PCR analysis. Format: functional, cell-based.
Assay [15] has as its system SH-SY5Y. The experiment in a line: Protective activity against tunicamycin induced ER-stress in human SH-SY5Y cells assessed as reduction Xbp1s mRNA expression at 5 uM incubated for 24 hrs by qRT-PCR analysis. Format: functional, cell-based.
Assay [16] concerns SH-SY5Y. The experiment in a line: Protection against p-tau-induced morphological changes in human SH-SY5Y cells assessed as change in cell density at 5 uM incubated for 24 hrs by contrast microscopic analysis. Format: functional, cell-based.
Assay [17] concerns SH-SY5Y. The experiment in a line: Protective activity against p-tau induced UPR response in human SH-SY5Y cells assessed as reduction spliced Xbp1 mRNA expression at 5 uM by qRT-PCR analysis. Format: functional, cell-based.
In assay [18] the test system is SH-SY5Y. The experiment in a line: Protective activity against tunicamycin induced ER-stress in human SH-SY5Y cells assessed as reduction P58ipk mRNA expression at 5 uM incubated for 24 hrs by qRT-PCR analysis. The format is functional, cell-based.
Assay [19] relates to SH-SY5Y. The assay is described as follows: Protective activity against p-tau induced UPR response in human SH-SY5Y cells assessed as reduction Bip mRNA expression at 5 uM by qRT-PCR analysis. Format: functional, cell-based.
In assay [20] the test system is SH-SY5Y. The experiment in a line: Protective activity against thapsigargin induced ER-stress in human SH-SY5Y cells assessed as reduction P58ipk mRNA expression at 5 uM incubated for 24 hrs by qRT-PCR analysis. The format is functional, cell-based.
Assay [21] has as its target Microtubule-associated protein tau (Homo sapiens, UniProt P10636). The assay is described as follows: Inhibition of BLI biosensor-immobilized heparin binding to p-tau hyperphosphorylation (unknown origin) by Biolayer interferometry analysis. In general terms: Biolayer interferometry detects binding as a change in optical thickness at a sensor tip.
The subject of assay [22] is SH-SY5Y. The assay is described as follows: Protective activity against p-tau induced ER-stress in human SH-SY5Y cells assessed as reduction ERdj4 mRNA expression at 5 uM by qRT-PCR analysis. Format: functional, cell-based.
Assay [23] has as its system SH-SY5Y. The experiment in a line: Protective activity against thapsigargin induced ER-stress in human SH-SY5Y cells assessed as reduction Xbp1s mRNA expression at 5 uM incubated for 24 hrs by qRT-PCR analysis. The format is functional, cell-based.
A further assay has as its target T1, Platelet factor 4 (Homo sapiens, UniProt P02776).
T1 sequence (P02776 whole entry): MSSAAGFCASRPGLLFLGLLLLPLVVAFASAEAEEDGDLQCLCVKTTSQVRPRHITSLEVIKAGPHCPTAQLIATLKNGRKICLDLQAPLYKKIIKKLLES
The experiment in a line: Binding affinity to human recombinant PF4 by Biolayer interferometry analysis.

Assay [24] has as its system SH-SY5Y. The assay is described as follows: Protective activity against tunicamycin induced ER-stress in human SH-SY5Y cells assessed as reduction ATF4 mRNA expression at 5 uM incubated for 24 hrs by qRT-PCR analysis. The format is functional, cell-based.
Assay [25] concerns SH-SY5Y. The assay is described as follows: Protective activity against p-tau induced ER-stress in human SH-SY5Y cells assessed as reduction spliced Xbp1 mRNA expression at 5 uM by qRT-PCR analysis. Format: functional, cell-based.
The subject of assay [26] is SH-SY5Y. The assay is described as follows: Protective activity against p-tau induced UPR response in human SH-SY5Y cells assessed as reduction ERdj4 mRNA expression at 5 uM by qRT-PCR analysis. The format is functional, cell-based.
Assay [27] relates to SH-SY5Y. The experiment in a line: Protection against p-tau-induced morphological changes in human SH-SY5Y cells assessed as change in cell morphology at 5 uM incubated for 24 hrs by contrast microscopic analysis. Format: functional, cell-based.
The subject of assay [28] is SH-SY5Y. The assay is described as follows: Cytoprotective activity against p-tau-induced toxicity in human SH-SY5Y cells assessed as reduction in cell viability at 8 uM incubated for 12 hrs by CCK-8 assay. The format is functional, cell-based.

The source made the active and inactive calls. The rule behind the calls is not given here.

Microtubule-associated protein tau, sequence (P10636 whole entry): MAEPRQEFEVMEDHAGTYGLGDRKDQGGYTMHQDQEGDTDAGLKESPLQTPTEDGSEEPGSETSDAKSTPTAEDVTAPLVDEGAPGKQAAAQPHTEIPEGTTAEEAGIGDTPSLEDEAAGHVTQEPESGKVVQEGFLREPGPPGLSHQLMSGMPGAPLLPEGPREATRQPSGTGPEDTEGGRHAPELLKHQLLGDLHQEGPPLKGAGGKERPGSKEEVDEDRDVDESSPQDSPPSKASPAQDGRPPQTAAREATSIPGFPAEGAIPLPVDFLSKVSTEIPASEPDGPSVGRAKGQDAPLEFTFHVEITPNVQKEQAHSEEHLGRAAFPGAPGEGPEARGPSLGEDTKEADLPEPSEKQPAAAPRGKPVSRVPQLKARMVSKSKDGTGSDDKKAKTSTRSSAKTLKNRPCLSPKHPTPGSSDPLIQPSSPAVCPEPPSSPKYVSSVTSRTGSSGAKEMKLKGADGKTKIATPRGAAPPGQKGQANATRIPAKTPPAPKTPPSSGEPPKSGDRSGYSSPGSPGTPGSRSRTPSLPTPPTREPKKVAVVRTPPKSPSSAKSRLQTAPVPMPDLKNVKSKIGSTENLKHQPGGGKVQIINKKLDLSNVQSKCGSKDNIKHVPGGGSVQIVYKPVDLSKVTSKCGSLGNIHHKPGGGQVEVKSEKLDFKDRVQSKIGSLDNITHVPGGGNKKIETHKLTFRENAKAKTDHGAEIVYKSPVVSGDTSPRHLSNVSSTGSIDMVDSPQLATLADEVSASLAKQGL

As for `COC(=O)[C@]12CCC(C)(C)C[C@H]1C1=CCC3[C@@]4(C)CC[C@H](O)C(C)(C)C4CC[C@@]3(C)C1(C)CC2` (some centres undefined), the Activity result in the assay on SH-SY5Y [1] was “No effect”.
`O=C(O)[C@H]1O[C@@H](O[C@H]2[C@H](O)[C@@H](NS(=O)(=O)O)[C@H](OCCNS(=O)(=O)O)O[C@@H]2COS(=O)(=O)O)[C@H](O)[C@@H](O)[C@@H]1O[C@H]1O[C@H](COS(=O)(=O)O)[C@@H](O)[C@H](O)[C@H]1NS(=O)(=O)O`: the result in the assay on SH-SY5Y [2], in the assay with SH-SY5Y [3], with SH-SY5Y [4], with SH-SY5Y [5], in the assay with SH-SY5Y [7] and in the assay on SH-SY5Y [8] was inactive. In addition, the outcome in the assay on SH-SY5Y [9] and with SH-SY5Y [10] was inactive. In addition, in the assay on SH-SY5Y [6], the Activity result was “Moderate_effect”.
By EC50 is commonly meant the concentration at which the effect is half-maximal. `CN1CCc2cccc3c2[C@H]1Cc1ccc(O)c(O)c1-3` [APOMORPHINE]: the result in the assay with SH-SY5Y [11] was Active. Also, the EC50 in the assay with SH-SY5Y [12] came out at 2.9 µM.
For orientation: IC50 means the concentration at which inhibition is half-maximal. As for `COC(=O)[C@]12CCC(C)(C)C[C@H]1C1=CCC3[C@@]4(C)CC[C@H](O[C@@H]5O[C@H](COS(=O)(=O)O)[C@@H](O[C@@H]6O[C@H](C(=O)O)[C@@H](O[C@H]7O[C@H](COS(=O)(=O)O)[C@@H](O)[C@H](O)[C@H]7NS(=O)(=O)O)[C@H](O)[C@H]6O)[C@H](O)[C@H]5NS(=O)(=O)O)C(C)(C)C4CC[C@@]3(C)C1(C)CC2` (some centres undefined), the result with SH-SY5Y [13], in the assay with SH-SY5Y [15], in the assay with SH-SY5Y [18], in the assay with SH-SY5Y [20], with SH-SY5Y [8] and in the assay on SH-SY5Y [23] was inactive. The outcome with SH-SY5Y [24] was inactive. Besides, the outcome with SH-SY5Y [2], with SH-SY5Y [3], with SH-SY5Y [14], in the assay with SH-SY5Y [11], with SH-SY5Y [4] and with SH-SY5Y [5] was Active. The outcome in the assay with SH-SY5Y [16], in the assay with SH-SY5Y [17], with SH-SY5Y [19], with SH-SY5Y [7], in the assay on SH-SY5Y [22] and in the assay on SH-SY5Y [9] was Active. Besides, the result in the assay on SH-SY5Y [25], with SH-SY5Y [26], in the assay on SH-SY5Y [10], in the assay on SH-SY5Y [27] and in the assay with SH-SY5Y [28] was Active. Also, the EC50 in the assay on SH-SY5Y [12] came to 2.69 µM. Moreover, the concentration for half-maximal inhibition (IC50) in assay [21] was determined as 28.8 µM; on Platelet factor 4 it was 21.8 µM.

Source of the values: ChEMBL document CHEMBL6121045, “Effects of Heparan Sulfate Trisaccharide Containing Oleanolic Acid in Attenuating Hyperphosphorylated Tau-Induced Cell Dysfunction Associated with Alzheimer's Disease” (J Med Chem, 2025).
